The source of these data is ChEMBL document CHEMBL1287743, “Comparative inhibitory activity of 3'- and 5'-functionalized nucleosides on ribonuclease A” (Bioorg Med Chem, 2010).

The source made the active and inactive calls. No cut-off for these calls is given here.

The term inhibition denotes the relative decrease from the control value, in per cent. One may read the Ki as the dissociation constant of the complex between target and ligand, obtained from inhibition or displacement. A high value points to lower affinity.

The target in experiment [1] is T1, Ribonuclease pancreatic (Bos taurus) (UniProt P61823).
T1 sequence (whole entry): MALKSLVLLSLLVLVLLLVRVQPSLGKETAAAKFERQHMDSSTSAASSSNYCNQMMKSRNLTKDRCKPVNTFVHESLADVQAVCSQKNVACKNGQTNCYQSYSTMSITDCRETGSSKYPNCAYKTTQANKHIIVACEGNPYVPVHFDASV
As to the kind of experiment: Inhibition of bovine pancreatic RNase A ribonucleolytic activity of RNase A at 2.5 mM after 2 hrs by precipitation assay.

Experiment [2] has as its target T1, Ribonuclease pancreatic (Bos taurus). As to the kind of experiment: Inhibition of bovine pancreatic RNase A assessed as degradation of tRNA at 1.9 mM after 6 hrs using ethidium bromide staining by agarose gel-based assay.
In another experiment the target is T2, Ribonuclease pancreatic (Bos taurus, UniProt P61823).
T2 sequence (P61823 whole entry): T1 sequence (whole entry)
As to the kind of experiment: Competitive inhibition of bovine pancreatic RNase A ribonucleolytic activity of by Dixon plot analysis.

On to `Cc1cn([C@H]2C[C@H](NC(=O)C(N)CC(=O)O)[C@@H](CO)O2)c(=O)[nH]c1=O` (some centres undefined), for which the inhibition in experiment [1] is 47.6%. Besides, in experiment [2], the inhibition result was “Active”. Besides, the affinity at Ribonuclease pancreatic, expressed as Ki, was 37 µM.

Compound `Nc1ncnc2c1ncn2[C@@H]1O[C@H](C(=O)O)[C@@H](O)[C@H]1O` [5'-CARBOXY ADENOSINE] yielded an inhibition in experiment [1] of 32.2%. Moreover, the inhibition entry in experiment [2] is “Active”. The compound also had a Ki at Ribonuclease pancreatic of 67 µM.

Turning to `Cc1cn([C@H]2C[C@H](O)[C@@H](C(=O)O)O2)c(=O)[nH]c1=O` [5'-CARBOXY THYMIDINE], in experiment [1], the inhibition is 23.5%. The inhibition entry in experiment [2] is “Active”. The affinity at Ribonuclease pancreatic corresponds to a Ki of 193 µM.
